In patent publication US20260151446A1, “IMPROVED ORAL BIOAVAILABILITY FORMULATION FOR MITRAGYNA SPECIOSA (KRATOM)” (priority 2022, published 2026):

Experiments:
[1] = Proof of concept pharmacokinetic / bioavailability study, plasma mitragynine after single dose; type: in vivo, Sprague Dawley rats; settings: male rats
Procedure: Once the capsule formulation was finalized, a proof of concept and safety study was carried out in Sprague Dawley rats. Male and female rats (250±25 g) were purchased from Envigo (Indianapolis, IN, USA) with indwelling jugular vein cannulas and acclimated ≥72 h in a temperature- and humidity-controlled vivarium on a 12 h light/dark cycle. Study protocols were approved by the Institutional Animal Care and Use Committee (IACUC) at the University of Florida, which is fully accredited by the Association for Assessment and Accreditation of Laboratory Animal Care International (AAALAC) and were written in accordance with the National Institutes of Health (NIH) Guide for the Care and Use of Laboratory Animals.
Rats were fasted for 10 h prior to dosing and an additional 2 h post-dose. Rats were dosed with one size 9 gelatin capsule with fill weights of 19.5±0.5 mg, (about 5.1 mg kratom or 2.3 mg mitragynine). […] Rats were connected to an automatic blood collection system (Bioanalytical Systems Inc., West Lafayette, IN, USA) and blood samples were taken at pre-dose, 0.08, 0.17, 0.25, 0.5, 0.75, 1, 2, 4, 6, 8, 12, 18, and 24 h. At the completion of the study, plasma samples were separated by centrifugation at 850×g for 10 min at 4° C. and stored at −20° C. until analysis.
To process plasma (rat or dog) samples for analysis, 20 μL aliquots of each sample were taken. To prepare calibration standards (CS), 2.0 μL of mix stock were added to 18 μL of blank plasma. This generated eight standards of 2.5, 5, 25, 50, 100, 150, 250, and 500 ng/mL, in the respective plasma. The same process was used to generate the lower limit of quantification (LLOQ) (2.5 ng/mL), low quality control (LQC) (6.25 ng/mL), medium quality control MQC (200 ng/mL) and high quality control (HQC) (400 ng/mL). After spiking, the CS and QC samples were vortex mixed for 5 min at 650 rpm. Analytes were precipitated using 100 μL methanol acidified with 0.05% formic acid containing 50 ng/mL IS in a 1:4 ratio. The samples were then vortex mixed for 5 min at 650 rpm before being transferred to a 96-well Millipore Solvinert 0.45 μm filter plate (Burlington, MA, USA) and centrifuged at 850×g for 2 min at 4° C.
A previously reported UPLC-MS/MS method for the quantification of eleven kratom alkaloids was used to analyze all samples^13. Briefly, the mobile phase composed of aqueous ammonium acetate buffer (2.5 mM, pH 3.5, (A)) and acetonitrile (B). The gradient started at 90% A and 10% B, and A was decreased to 75% by 3.5 min and then to 60% by 10 min. […] An Acquity UPLC® BEH C18 column (1.7 μm, 2.1×100 mm) with a VanGuard precolumn of the same chemistry was used for separation (Waters, Milford, MA, USA). The UPLC-MS/MS was a Waters™ Acquity Class-I chromatograph coupled with a Xevo TQ-S Micro triple quadrupole mass spectrometer (Waters, Milford, MA, USA).
The TargetLynx™ application of MassLynx™ 4.2 was used for data processing and quantification of the UPLC-MS/MS data (Waters, Milford, MA, USA). Phoenix Version 6.4 (Certara, Princeton, NJ, USA) was used for the non-compartmental analysis using a linear log interpolation. Graphpad Prism Version 8 (GraphPad Software, San Diego, CA, USA) was used to plot the concentration-time profiles for each dataset. R Studio version 1.4.1717 was used for statistical analysis (R Foundation for Statistical Computing, Vienna, Austria).

[2] = rats; delivered as a purified aqueous solution; cited from earlier work
[3] = single oral dose of 5 mg/kg mitragynine equivalent; female beagle dogs; cited from earlier work
[4] = mitragynine in plasma, oral 20 mg/kg

CC[C@@H]1CN2CCc3c([nH]c4cccc(OC)c34)[C@@H]2C[C@@H]1/C(=C\OC)C(=O)OC [Mitragynine, mitragynine]
Tmax ([1]; Sprague Dawley, rat, in vivo, mitragynine in plasma, oral 20 mg/kg): 24 ± 6 min | bioavailability ([1]; Sprague Dawley, rat, in vivo, mitragynine, oral 20 mg/kg): 37% | AUC/Dose ([1]; mitragynine in plasma, IV […]): 335 ± 16.5 µg·h/L/mg/kg | AUC/Dose [1, 4]: 122.4 ± 13.0 µg·h/L/mg/kg | Cmax/Dose [1, 4]: 22.7 ± 4.9 µg/L/mg/kg | bioavailability of mitragynine [2]: 17% | tolerability [3]: well tolerated
